# Experimental data taken from patent US5573923A, “Method for removing N-terminal dipeptides from precursor polypeptides with immobilized dipeptidylaminopeptidase from dictyostelium discoideum” (Eli Lilly and Company, priority 1993, dated 1996).
# Residues, ends and D or L forms follow the SMILES beside them. *: point of attachment. pNA = O=[N+]([O-])c1ccc(N*)cc1; AMC = Cc1cc(=O)oc2cc(N*)ccc12; βNA = c1ccc2cc(N*)ccc2c1; Cbz = O=C(OCc1ccccc1)*
# Legend:
# [1] = test system: dDAP; assay: pH dependence of substrate cleavage by dDAP; type: biochemical, Dictyostelium discoideum; conditions: unbound dDAP
# Protocol: The pH optima for the GFpNA cleaving ability of dDAP was determined by adjusting a buffer consisting of 0.5M Tris®, phosphate and citrate with 10% HCl or 10% NaOH to various pHs within the range of 3 to 8. dDAP enzyme was diluted 20-fold in a buffer containing 100 mM cysteamine and 10 mM NaCl. Bovine DAP-I was diluted 200-fold in the same buffer. A GFpNA substrate solution (4 mM) was prepared in 2% dimethylformamide. In a microtiter plate, 0.025 ml of the Tris/phosphate/citrate buffer of various pH's was combined with 0.1 ml of diluted enzyme and with 0.1 ml of substrate solution. The rate of increase of absorbance at 410 nm was determined on a plate-reader over a 30 minute period.
# Four mM GRpNA was prepared in 50 mM acetic acid, 50 mM glycine buffer, pH 5. HCl or NaOH was used to achieve a variety of pHs, from 5.1 to 2.3. To 180 ul of the above pH buffered substrate was added 5 ul dDAP (49 milliunits/ml final). The rate of increase of absorbance at 410 nm was monitored (using a plate-reader) and the rate of increase was compared with the pH of the reaction solution.
# (§1) About 0.25 mM RRBNA or 0.25 mM Z-RRBNA was prepared in either 100 mM acetic acid, pH 3.5, or 100 mM citrate buffer, pH 5.0. To 2 ml of substrate was added dDAP or bovine DAP-I (about 15 milliunit/ml solution). Rates of cleavage (monitoring fluorescence increase at 410 nm with excitation at 340 nm) were monitored. […] The pH optimum for cleavage of RRBNA was probed by monitoring the rate of RRBNA cleavage using a buffer system consisting of 50 mM acetic acid and 50 mM citrate. Various pHs were achieved using HCl or NaOH and 1.5 ml volumes were made 2.0 with 0.5 ml of a 1 mM stock solution of RRBNA (final concentration of about 0.25 mM). dDAP was added (to about 15 mU/ml) and the rates of cleavage were determined.
# The skilled artisan will recognize that the optimum pH for cleavage of a substrate not only depends upon the enzyme but the substrate itself, that is, the constitution of the removed dipeptide as well as the indicator group itself.
# [2] = test system: dDAP; assay: Cleavage of RRBNA and Z-RRBNA (fluorescence increase); type: biochemical, Dictyostelium discoideum; conditions: about 0.25 mM substrate, pH 3.5 or pH 5.0, about 15 milliunit/ml enzyme
# Protocol: as §1
# [3] = target: T1, bovine DAP-I (Bos taurus, UniProt Q3ZCJ8); assay: as above; type: biochemical; conditions: about 0.25 mM substrate, pH 3.5 or pH 5.0, about 15 milliunit/ml enzyme
# T1 construct: bovine spleen DAP-I; from tissue; host or cells: bovine spleen
# T1 sequence (Q3ZCJ8 231-394 limits assumed): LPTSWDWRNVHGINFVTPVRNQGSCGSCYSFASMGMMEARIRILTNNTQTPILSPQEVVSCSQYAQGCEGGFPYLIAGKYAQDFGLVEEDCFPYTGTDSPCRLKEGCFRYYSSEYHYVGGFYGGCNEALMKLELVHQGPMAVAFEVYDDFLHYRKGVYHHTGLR
# T1 sequence (Q3ZCJ8 395-463 limits assumed): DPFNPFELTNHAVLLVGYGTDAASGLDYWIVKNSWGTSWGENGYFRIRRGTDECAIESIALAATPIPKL
# T1 sequence (Q3ZCJ8 25-143 limits assumed): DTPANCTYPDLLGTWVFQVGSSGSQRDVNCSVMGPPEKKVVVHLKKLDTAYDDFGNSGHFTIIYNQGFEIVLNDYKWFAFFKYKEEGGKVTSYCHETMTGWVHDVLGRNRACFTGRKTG
# Protocol: as §1
# [4] = target: T2, bovine spleen DAP-I (Bos taurus, UniProt Q3ZCJ8); assay: Inhibition of GFpNA cleavage by sulfhydryl modifying agents; type: biochemical; conditions: 5 mM inhibitor, 15 minutes at room temperature, pH 7; then 4 mM GFpNA, pH 3.5, 37° C.; read-out: decrease (inhibition) of rate of cleavage of GFpNA
# T2 construct: bovine spleen DAP-I; from tissue; host or cells: bovine spleen
# T2 sequence (Q3ZCJ8 231-394 limits assumed): as the sequence (Q3ZCJ8 231-394 limits assumed) above
# T2 sequence (Q3ZCJ8 395-463 limits assumed): as the sequence (Q3ZCJ8 395-463 limits assumed) above
# T2 sequence (Q3ZCJ8 25-143 limits assumed): as the sequence (Q3ZCJ8 25-143 limits assumed) above
# Protocol: (§2) After purification or storage, dDAP enzymatic activity was usually monitored by following the cleavage of the chromogenic substrate GFpNA. Typically the assay was performed by diluting the enzyme at least 11 fold into 1.0 ml of 4 mM GFpNA in 0.05M acetic acid adjusted to pH 3.5. The rate of cleavage of Gly-Phe dipeptide was monitored at 37° C. by measuring the increase in absorbance at 405 nm. One unit of activity leads to a 0.90 OD change per minute under these conditions. Unit/ml estimates can be made assuming an extinction coefficient for free p-nitroanilide (pNA) of 9.9 mM-1 cm-1 at 405 nm.
# (§3) The inhibition profile of dDAP toward the substrate GFpNA was compared to that of bovine spleen DAP-I using iodoacetamide and potassium tetrathionate, sulfhydryl modifying agents known to inhibit the activity of bovine spleen DAP-I. Samples of dDAP or bovine spleen DAP-I were incubated for 15 minutes at room temperature in final concentrations of 0, 0.5, 5.0 or 50 mM of either inhibitor at pH 7 in 100 mM Tris buffer. The incubated solutions were then diluted 21-fold with 4 mM GFpNA, pH 3.5. The rate of cleavage was monitored by measuring the increase in absorbance at 405 nm at 37° C. Bovine DAP-I's rate of cleavage of GFpNA was decreased more than 90% by the exposure to 5 mM iodoacetamide and was 95% inhibited by 5 mM potassium tetrathionate.
# [5] = test system: dDAP; assay: as above; type: biochemical, Dictyostelium discoideum; conditions: 0.5, 5.0 or 50 mM inhibitor, 15 minutes at room temperature, pH 7; then 4 mM GFpNA, pH 3.5, 37° C.
# Protocol: as §2, §3
smiles,measurement,setting,value
"N=C(N)NCCC[C@H](NC(=O)[C@@H](N)CCCNC(=N)N)C(=O)Nc1ccc2ccccc2c1 [RRBNA, Arg-Arg-β-naphthylamide] (H-Arg-Arg-βNA)",activity over the pH range,[1],significant activity seen over the entire range probed (pH 3.5 to pH 5.7)
same,cleavage of substrate,[2],able to effectively cleave
same,cleavage of substrate,[3],unable to cleave
Cc1cc(=O)oc2cc(NC(=O)[C@H](CCCNC(=N)N)NC(=O)CN)ccc12 [Gly-Arg-7-amido-4-methylcoumarin] (H-Gly-Arg-{AMC}),pH optimum for cleavage of the substrate,[1],~5 pH
NC(=O)CI [iodoacetamide],inhibition at 5000 µM,[4],> 90%
same,inhibition of GFpNA cleavage,[5],no evidence of significant inhibition
"N=C(N)NCCC[C@H](NC(=O)CN)C(=O)Nc1ccc([N+](=O)[O-])cc1 [GRpNA, Gly-Arg-pNA] (H-Gly-Arg-pNA)",activity over the pH range,[1],little activity below pH 2.5 or above pH 5
same,pH optimum for cleavage of the substrate,[1]; listed as G1y-Arg-pNA,~3.5 pH
O=S(=O)([O-])SSS(=O)(=O)[O-].[K+].[K+] [potassium tetrathionate],inhibition of GFpNA cleavage,[5],no evidence of significant inhibition
"NCC(=O)N[C@@H](Cc1ccccc1)C(=O)Nc1ccc([N+](=O)[O-])cc1 [GFpNA, Gly-Phe p-nitroanilide] (H-Gly-Phe-pNA)",pH optimum for cleavage of the substrate,[1],~3.5 pH
"N=C(N)NCCC[C@H](NC(=O)OCc1ccccc1)C(=O)N[C@@H](CCCNC(=N)N)C(=O)Nc1ccc2ccccc2c1 [Z-RRBNA, Benzyioxycarbonyl-RRBNA] (Cbz-Arg-Arg-βNA)",cleavage of substrate,[2],unable to cleave
same,cleavage of substrate,[3],unable to cleave
